Measured values published in publication PMC8330742, “New benzothieno[2,3-c]pyridines as non-steroidal CYP17 inhibitors: design, synthesis, anticancer screening, apoptosis induction, and in silico ADME profile studies” (Journal of Enzyme Inhibition and Medicinal Chemistry, 2021).

Legend:
[1] = test system: IGROV1; assay: NCI-60 SRB screen; type: cell-based, human; conditions: Homo sapiens, IGROV-1; single dose 10^−5 M; IGROV1, Ovarian cancer; read-out: Growth inhibition (%)
[2] = test system: UACC-62; assay: NCI-60 SRB screen; type: cell-based, human; conditions: Homo sapiens; single dose 10^−5 M; UACC-62, Melanoma; read-out: Growth inhibition (%)
[3] = test system: HOP-62; assay: NCI-60 SRB screen; type: cell-based, human; conditions: Homo sapiens; single dose 10^−5 M; HOP-62, Non-small cell lung carcinoma; read-out: Growth inhibition (%)
[4] = test system: SW-620; assay: NCI-60 SRB screen; type: cell-based; conditions: Homo sapiens; single dose 10^−5 M; SW-620, Colon cancer; read-out: Growth inhibition (%)
[5] = test system: SN12C; assay: NCI-60 SRB screen; type: cell-based, human; conditions: Homo sapiens, SN12C; single dose 10^−5 M; SN 12 C, Renal cancer; read-out: Growth inhibition (%)
[6] = test system: HT-29; assay: NCI-60 SRB screen; type: cell-based; conditions: Homo sapiens; single dose 10^−5 M; HT-29, Colon cancer; read-out: Growth inhibition (%)
[7] = test system: SF-268; assay: NCI-60 SRB screen; type: cell-based, human; conditions: Homo sapiens; single dose 10^−5 M; SF-268, CNS cancer; read-out: Growth inhibition (%)
[8] = test system: OVCAR-4; assay: NCI-60 SRB screen; type: cell-based, human; conditions: Homo sapiens; single dose 10^−5 M; OVCAR-4, Ovarian cancer; read-out: Growth inhibition (%)
[9] = test system: 786-0; assay: NCI-60 SRB screen; type: cell-based; conditions: Homo sapiens; single dose 10^−5 M; 786-0, Renal cancer; read-out: Growth inhibition (%)
[10] = test system: MALME-3M; assay: NCI-60 SRB screen; type: cell-based, human; conditions: Homo sapiens, single dose 10^−5 M, Melanoma, read-out: Growth inhibition (%)
[11] = test system: HOP-92; assay: NCI-60 SRB screen; type: cell-based, human; conditions: Homo sapiens; single dose 10^−5 M; HOP-92, Non-small cell lung carcinoma; read-out: Growth inhibition (%)
[12] = test system: NCI/ADR-RES; assay: NCI-60 SRB screen; type: cell-based, human; conditions: Homo sapiens, single dose 10^−5 M, Ovarian cancer, read-out: Growth inhibition (%)
[13] = test system: RXF 393; assay: NCI-60 SRB screen; type: cell-based, human; conditions: Homo sapiens; single dose 10^−5 M; RXF 393, Renal cancer; read-out: Growth inhibition (%)
[14] = test system: TK-10; assay: NCI-60 SRB screen; type: cell-based, human; conditions: Homo sapiens; single dose 10^−5 M; TK-10, Renal cancer; read-out: Growth inhibition (%)
[15] = test system: OVCAR-3; assay: NCI-60 SRB screen; type: cell-based, human; conditions: Homo sapiens; single dose 10^−5 M; OVCAR-3, Ovarian cancer; read-out: Growth inhibition (%)
[16] = test system: HL-60(TB); assay: NCI-60 SRB screen; type: cell-based, human; conditions: Homo sapiens; single dose 10^−5 M; HL-60(TB), Leukaemia; read-out: Growth inhibition (%)
[17] = test system: SK-MEL-5; assay: NCI-60 SRB screen; type: cell-based, human; conditions: Homo sapiens; single dose 10^−5 M; SK-MEL-5, Melanoma; read-out: Growth inhibition (%)
[18] = test system: K-562; assay: NCI-60 SRB screen; type: cell-based, human; conditions: Homo sapiens, K562; single dose 10^−5 M; K-562, Leukaemia; read-out: Growth inhibition (%)
[19] = test system: KM12; assay: NCI-60 SRB screen; type: cell-based, human; conditions: Homo sapiens; single dose 10^−5 M; KM12, Colon cancer; read-out: Growth inhibition (%)
[20] = test system: UACC-257; assay: NCI-60 SRB screen; type: cell-based, human; conditions: Homo sapiens; single dose 10^−5 M; UACC-257, Melanoma; read-out: Growth inhibition (%)
[21] = test system: HCT-15; assay: NCI-60 SRB screen; type: cell-based, human; conditions: Homo sapiens; single dose 10^−5 M; HCT-15, Colon cancer; read-out: Growth inhibition (%)
[22] = test system: SF-295; assay: NCI-60 SRB screen; type: cell-based, human; conditions: Homo sapiens; single dose 10^−5 M; SF-295, CNS cancer; read-out: Growth inhibition (%)
[23] = test system: M14; assay: NCI-60 SRB screen; type: cell-based, human; conditions: Homo sapiens; single dose 10^−5 M; M14, Melanoma; read-out: Growth inhibition (%)
[24] = test system: UO-31; assay: NCI-60 SRB screen; type: cell-based, human; conditions: Homo sapiens; single dose 10^−5 M; UO-31, Renal cancer; read-out: Growth inhibition (%)
[25] = test system: CCRF-CEM; assay: NCI-60 SRB screen; type: cell-based; conditions: Homo sapiens, single dose 10^−5 M, Leukaemia, read-out: Growth inhibition (%)
[26] = test system: NCI-H322M; assay: NCI-60 SRB screen; type: cell-based, human; conditions: Homo sapiens, single dose 10^−5 M, Non-small cell lung carcinoma, read-out: Growth inhibition (%)
[27] = test system: COLO 205; assay: NCI-60 SRB screen; type: cell-based, human; conditions: Homo sapiens; single dose 10^−5 M; COLO 205, Colon cancer; read-out: Growth inhibition (%)
[28] = test system: NCI-H226; assay: NCI-60 SRB screen; type: cell-based, human; conditions: Homo sapiens; single dose 10^−5 M; NCI-H226, Non-small cell lung carcinoma; read-out: Growth inhibition (%)
[29] = test system: NCI-H23; assay: NCI-60 SRB screen; type: cell-based, human; conditions: Homo sapiens; single dose 10^−5 M; NCI-H23, Non-small cell lung carcinoma; read-out: Growth inhibition (%)
[30] = test system: EKVX; assay: NCI-60 SRB screen; type: cell-based, human; conditions: Homo sapiens, single dose 10^−5 M, Non-small cell lung carcinoma, read-out: Growth inhibition (%)
[31] = test system: SK-MEL-2; assay: NCI-60 SRB screen; type: cell-based, human; conditions: Homo sapiens; single dose 10^−5 M; SK-MEL-2, Melanoma; read-out: Growth inhibition (%)
[32] = test system: MDA-MB-435; assay: NCI-60 SRB screen; type: cell-based; conditions: Homo sapiens, MDA-MB-435, read-out: Growth inhibition (%)
[33] = test system: OVCAR-8; assay: NCI-60 SRB screen; type: cell-based, human; conditions: Homo sapiens; single dose 10^−5 M; OVCAR-8, Ovarian cancer; read-out: Growth inhibition (%)
[34] = test system: HCT-116; assay: NCI-60 SRB screen; type: cell-based, human; conditions: Homo sapiens; single dose 10^−5 M; HCT-116, Colon cancer; read-out: Growth inhibition (%)
[35] = test system: CAKI-1; assay: NCI-60 SRB screen; type: cell-based, human; conditions: Homo sapiens; single dose 10^−5 M; CAKI-1, Renal cancer; read-out: Growth inhibition (%)
[36] = test system: NCI-H460; assay: NCI-60 SRB screen; type: cell-based, human; conditions: Homo sapiens; single dose 10^−5 M; NCI-H460, Non-small cell lung carcinoma; read-out: Growth inhibition (%)
[37] = test system: LOX IMVI; assay: NCI-60 SRB screen; type: cell-based, human; conditions: Homo sapiens, single dose 10^−5 M, Melanoma, read-out: Growth inhibition (%)
[38] = test system: ACHN; assay: NCI-60 SRB screen; type: cell-based; conditions: Homo sapiens, single dose 10^−5 M, Renal cancer, read-out: Growth inhibition (%)
[39] = test system: NCI-H522; assay: NCI-60 SRB screen; type: cell-based, human; conditions: Homo sapiens; single dose 10^−5 M; NCI-H522, Non-small cell lung carcinoma; read-out: Growth inhibition (%)
[40] = test system: panel of 60 cancer cell lines; assay: NCI-60 SRB screen, mean or range over the panel; type: cell-based, human; conditions: Homo sapiens; mean over the cell lines; single dose 10^−5 M; read-out: Mean growth inhibition (%)
[41] = test system: MOLT-4; assay: NCI-60 SRB screen; type: cell-based; conditions: Homo sapiens; single dose 10^−5 M; MOLT-4, Leukaemia; read-out: Growth inhibition (%)
[42] = test system: HCC-2998; assay: NCI-60 SRB screen; type: cell-based, human; conditions: Homo sapiens; single dose 10^−5 M; HCC-2998, Colon cancer; read-out: Growth inhibition (%)
[43] = test system: SK-MEL-28; assay: NCI-60 SRB screen; type: cell-based; conditions: Homo sapiens; single dose 10^−5 M; SK-MEL-28, Melanoma; read-out: Growth inhibition (%)
[44] = test system: SR; assay: NCI-60 SRB screen; type: cell-based; conditions: Homo sapiens, single dose 10^−5 M, Leukaemia, read-out: Growth inhibition (%)
[45] = test system: A549/ATCC; assay: NCI-60 SRB screen; type: cell-based, human; conditions: Homo sapiens, single dose 10^−5 M, Non-small cell lung carcinoma, read-out: Growth inhibition (%)

`N#CC1=C(N2CCCCC2)NC(c2cccc([N+](=O)[O-])c2)c2sc3c(F)cccc3c21` (stereo not drawn) [Compound 8f, 4-Cyano-3-(piperidin-1-yl)-8-fluoro-1-(3-nitrophenyl)-1,2-dihydro [1]benzothieno[2,3-c]pyridine] was tested, and the inhibition at 10 µM [1] was 14.9%, the inhibition at 10 µM [2] was 15.5% and the inhibition at 10 µM [3] was 10.2%. It also gave an inhibition at 10 µM [4] of 4.11%, an inhibition at 10 µM [5] of 3.7% and an inhibition at 10 µM [6] of -4.42%. For the same molecule, the inhibition at 10 µM [7] was 9.44%, the inhibition at 10 µM [8] was 0.9% and the inhibition at 10 µM [9] was -12.1%. It also gave an inhibition at 10 µM [10] of -10.6%, an inhibition at 10 µM [11] of 4.9% and an inhibition at 10 µM [12] of -1.61%. It also gave an inhibition at 10 µM [13] of -6.31%, an inhibition at 10 µM [14] of -53.1% and an inhibition at 10 µM [15] of 0.09%. It also gave an inhibition at 10 µM [16] of -3.35%, an inhibition at 10 µM [17] of -14.8% and an inhibition at 10 µM [18] of 23.1%. For the same molecule, the inhibition at 10 µM [19] was 5.13%, the inhibition at 10 µM [20] was -12.7% and the inhibition at 10 µM [21] was -4.78%. For the same molecule, the inhibition at 10 µM [22] was -9.62%, the inhibition at 10 µM [23] was 0.58% and the inhibition at 10 µM [24] was 33.3%. The inhibition at 10 µM [25] was 3.32%, the inhibition at 10 µM [26] was -5.64% and the inhibition at 10 µM [27] was -16.7%. The inhibition at 10 µM [28] was 15.7%, the inhibition at 10 µM [29] was 4.09% and the inhibition at 10 µM [30] was 5.51%. The inhibition at 10 µM [31] was 2.71%, the inhibition at 10 µM [32] was -6.93% and the inhibition at 10 µM [33] was -0.33%. The inhibition at 10 µM [34] was 4.5%, the inhibition at 10 µM [35] was 28.7% and the inhibition at 10 µM [36] was 2.2%. For the same molecule, the inhibition at 10 µM [37] was 2.61%, the inhibition at 10 µM [38] was 14.3% and the inhibition at 10 µM [39] was 9.54%. For the same molecule, the inhibition at 10 µM [40] was 0.008%, the inhibition at 10 µM [41] was 5.31% and the inhibition at 10 µM [42] was -23.2%. For the same molecule, the inhibition at 10 µM [43] was -10.7%, the inhibition at 10 µM [44] was 11.1% and the inhibition at 10 µM [45] was -2.65%.

Work on `CCN1CCN(C2=C(Cl)c3c(sc4c(F)cccc34)C(c3cccc([N+](=O)[O-])c3)N2)CC1` (stereo not drawn) [Compound 8a, 4-Chloro-3–(4-ethylpiperzin-1-yl)-8-fluoro-1-(3-nitrophenyl)-1,2-dihydro [1]benzothieno[2,3-c]pyridine] yielded an inhibition at 10 µM [1] of 23.8%, an inhibition at 10 µM [2] of 11.6% and an inhibition at 10 µM [3] of 3.76%. For the same molecule, the inhibition at 10 µM [4] was 4.03%, the inhibition at 10 µM [5] was 2.25% and the inhibition at 10 µM [6] was 2.3%. For the same molecule, the inhibition at 10 µM [7] was 7.38%, the inhibition at 10 µM [8] was 3.25% and the inhibition at 10 µM [9] was -7.31%. It also gave an inhibition at 10 µM [10] of 1.57%, an inhibition at 10 µM [11] of 10.7% and an inhibition at 10 µM [12] of -1.63%. For the same molecule, the inhibition at 10 µM [13] was -2.44%, the inhibition at 10 µM [14] was -41.7% and the inhibition at 10 µM [15] was 1.03%. The inhibition at 10 µM [16] was -9.32%, the inhibition at 10 µM [17] was -14.1% and the inhibition at 10 µM [18] was 13.2%. The inhibition at 10 µM [19] was -1.16%, the inhibition at 10 µM [20] was -7.62% and the inhibition at 10 µM [21] was 2.5%. It also gave an inhibition at 10 µM [22] of 0.4%, an inhibition at 10 µM [23] of 6.73% and an inhibition at 10 µM [24] of 35.8%. It also gave an inhibition at 10 µM [25] of 1.89%, an inhibition at 10 µM [26] of -1.6% and an inhibition at 10 µM [27] of -11.9%. The inhibition at 10 µM [28] was 17%, the inhibition at 10 µM [29] was 7.1% and the inhibition at 10 µM [30] was 4.5%. The inhibition at 10 µM [31] was 3.85%, the inhibition at 10 µM [32] was -6.27% and the inhibition at 10 µM [33] was 2.09%. It also gave an inhibition at 10 µM [34] of 15%, an inhibition at 10 µM [35] of 21.9% and an inhibition at 10 µM [36] of 0.6%. For the same molecule, the inhibition at 10 µM [37] was 6.7%, the inhibition at 10 µM [38] was 9.21% and the inhibition at 10 µM [39] was 14.3%. For the same molecule, the inhibition at 10 µM [40] was -0.2%, the inhibition at 10 µM [41] was 5.94% and the inhibition at 10 µM [42] was -2.53%. The inhibition at 10 µM [43] was -10.8%, the inhibition at 10 µM [44] was 23.5% and the inhibition at 10 µM [45] was 1.8%.
